Experimental data reported in patent US20020137929A1, “1 - (3-heterocyclylphenyl) isothiourea, -isourea, -guanidine and -amidine herbicidal agents” (Intellectual Property Department, BASF Aktiengesellschaft, priority 1998, published 2002).

What was measured:
CYPSE (Flatsedge) [1] = experiment: Postemergence weed control under flooded paddy conditions; assay type: in vivo, Cyperus serotinus; details: postemergence weeds, rated 3 to 4 weeks after treatment
Procedure, shortened: (§1)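 Herbicidal effect is judged by eye on a 0–9 scale versus control, 3–4 weeks after dosing. Dosing is into flood water kept 1.5–3 cm over the soil, at about 0.0313–0.500 kg/ha in aqueous/acetone 50/50 v/v, on 3–5 cm weeds and 1.5–2.5-leaf rice seedlings.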

[2] = tested on: CHEAL (Lambsquarters, Common); experiment: Preemergence herbicidal evaluation; assay type: in vivo, Chenopodium album; details: rated 4-5 weeks after treatment
Procedure, shortened: (§2)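 Each species is sown separately in potting soil over roughly an inch of soil before any emergence. The soil surface then receives an aqueous acetone spray delivering about 0.0156 to 0.500 kg/ha of compound. After four to five weeks, injury is scored from 0 to 9 relative to a control.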

[3] = tested on: GLXMAW (Soybean, Williams); experiment: Postemergence herbicidal evaluation; assay type: in vivo, Glycine max, (L.) Merr. cv Williams
Procedure, shortened: (§3)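 Rate range approx. 0.0156–0.500 kg/ha. Foliar application at 40 psi to ~2-week seedlings; surfactant 0.5% TWEEN 20 in 50/50 acetone/water. Evaluation 4–5 wk post-treatment by 0–9 visual injury score, means of replicate tests.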

ZEAMX (Corn, Field) = experiment: Postemergence herbicidal evaluation; assay type: in vivo, Zea mays
Procedure, shortened: as §3

CYPIR (Rice Flatsedge) = experiment: Postemergence weed control under flooded paddy conditions; assay type: in vivo, Cyperus iria; details: postemergence weeds, rated 3 to 4 weeks after treatment
Procedure, shortened: as §1

[4] = tested on: CHEAL (Lambsquarters, Common); experiment: Postemergence herbicidal evaluation; assay type: in vivo, Chenopodium album
Procedure, shortened: as §3

CASOB (Sicklepod) = experiment: Preemergence herbicidal evaluation; assay type: in vivo, Cassia obtusifolia; details: rated 4-5 weeks after treatment
Procedure, shortened: as §2

ABUTH (Velvetleaf) = experiment: Postemergence herbicidal evaluation; assay type: in vivo, Abutilon theophrasti
Procedure, shortened: as §3

CYPSE (Flatsedge) [5] = experiment: Preemergence weed control under flooded paddy conditions; assay type: in vivo, Cyperus serotinus; details: rated 3-4 weeks after treatment
Procedure, shortened: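 First, seeds or propagules go into the top 0.5 cm of silt loam; next, water is held 1.5 to 3 cm over the soil; then compound (50/50 acetone/water) is pipetted into it at about 0.0313 to 0.500 kg/ha; finally plants are rated visually 0-9 after three to four weeks.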

GALAP (Galium) = experiment: Preemergence herbicidal evaluation; assay type: in vivo, Galium aparine; details: rated 4-5 weeks after treatment
Procedure, shortened: as §2

AMBEL (Ragweed, Common) [6] = experiment: Postemergence herbicidal evaluation; assay type: in vivo, Ambrosia artemisifolia
Procedure, shortened: as §3

AMBEL (Ragweed, Common) [7] = experiment: Preemergence herbicidal evaluation; assay type: in vivo, Ambrosia artemisifolia; details: rated 4-5 weeks after treatment
Procedure, shortened: as §2

ECHCG (Barnyardgrass) = experiment: Postemergence herbicidal evaluation; assay type: in vivo, Echinochloa crus-galli
Procedure, shortened: as §3

ORYSAT (Rice, Tebonnet) = experiment: Postemergence herbicidal evaluation; assay type: in vivo, Oryza sativa, (L.) Tebonnet
Procedure, shortened: as §3

Compound: C=CCN1C(=O)C(CC(=O)OC)SC1=Nc1cc(-n2c(=O)cc(C(F)(F)F)n(C)c2=O)c(F)cc1Cl (stereo not shown) [Compound 64, Methyl 3-allyl-2-{{2-chloro-5-[3,6-dihydro-3-methyl-2,6-dioxo-4-(trifluoromethyl)-1(2H)-pyrimidinyl]-4-fluorophenyl}imino}-4-oxo-5-thiazolidineacetate]
- Herbicidal rating CYPSE (CYPSE (Flatsedge) [1]; Rate 0.0313 kg/ha): 0.0
- Herbicidal rating CYPSE (CYPSE (Flatsedge) [1]; Rate 0.0625 kg/ha): 0.0
- Herbicidal rating CYPSE (CYPSE (Flatsedge) [1]; Rate 0.1250 kg/ha): 0.0
- Herbicidal rating CYPSE (CYPSE (Flatsedge) [1]; Rate 0.2500 kg/ha): 0.0
- Preemergence herbicidal rating CHEAL ([2]; rate 0.0156 kg/ha): 9.0
- Preemergence herbicidal rating CHEAL ([2]; rate 0.0313 kg/ha): 9.0
- Preemergence herbicidal rating CHEAL ([2]; rate 0.0625 kg/ha): 9.0
- Preemergence herbicidal rating CHEAL ([2]; rate 0.1250 kg/ha): 9.0
- Preemergence herbicidal rating CHEAL ([2]; rate 0.2500 kg/ha): 9.0
- Postemergence herbicidal rating GLXMAW ([3]; Rate 0.0158 kg/ha): 7.0
- Postemergence herbicidal rating GLXMAW ([3]; Rate 0.0315 kg/ha): 7.5
- Postemergence herbicidal rating GLXMAW ([3]; Rate 0.0630 kg/ha): 7.5
- Postemergence herbicidal rating ZEAMX (ZEAMX (Corn, Field); Rate 0.0158 kg/ha): 7.0
- Postemergence herbicidal rating ZEAMX (ZEAMX (Corn, Field); Rate 0.0315 kg/ha): 8.0
- Postemergence herbicidal rating ZEAMX (ZEAMX (Corn, Field); Rate 0.0630 kg/ha): 8.0
- Herbicidal rating CYPIR (CYPIR (Rice Flatsedge); Rate 0.0313 kg/ha): 0.0
- Herbicidal rating CYPIR (CYPIR (Rice Flatsedge); Rate 0.0625 kg/ha): 2.0
- Herbicidal rating CYPIR (CYPIR (Rice Flatsedge); Rate 0.1250 kg/ha): 2.0
- Herbicidal rating CYPIR (CYPIR (Rice Flatsedge); Rate 0.2500 kg/ha): 7.0
- Postemergence herbicidal rating CHEAL ([4]; Rate 0.0158 kg/ha): 9.0
- Postemergence herbicidal rating CHEAL ([4]; Rate 0.0315 kg/ha): 9.0
- Postemergence herbicidal rating CHEAL ([4]; Rate 0.0630 kg/ha): 9.0
- Preemergence herbicidal rating CASOB (CASOB (Sicklepod); rate 0.0156 kg/ha): 0.0
- Preemergence herbicidal rating CASOB (CASOB (Sicklepod); rate 0.0313 kg/ha): 0.0
- Preemergence herbicidal rating CASOB (CASOB (Sicklepod); rate 0.0625 kg/ha): 1.0
- Preemergence herbicidal rating CASOB (CASOB (Sicklepod); rate 0.1250 kg/ha): 5.0
- Preemergence herbicidal rating CASOB (CASOB (Sicklepod); rate 0.2500 kg/ha): 4.0
- Postemergence herbicidal rating ABUTH (ABUTH (Velvetleaf); Rate 0.0158 kg/ha): 9.0
- Postemergence herbicidal rating ABUTH (ABUTH (Velvetleaf); Rate 0.0315 kg/ha): 9.0
- Postemergence herbicidal rating ABUTH (ABUTH (Velvetleaf); Rate 0.0630 kg/ha): 9.0
- CYPSE herbicidal effect rating (CYPSE (Flatsedge) [5]; 0.0313 kg/ha): 0.0
- CYPSE herbicidal effect rating (CYPSE (Flatsedge) [5]; 0.0625 kg/ha): 0.0
- CYPSE herbicidal effect rating (CYPSE (Flatsedge) [5]; 0.1250 kg/ha): 0.0
- CYPSE herbicidal effect rating (CYPSE (Flatsedge) [5]; 0.2500 kg/ha): 0.0
- Preemergence herbicidal rating GALAP (GALAP (Galium); rate 0.0156 kg/ha): 0.0
- Preemergence herbicidal rating GALAP (GALAP (Galium); rate 0.0313 kg/ha): 0.0
- Preemergence herbicidal rating GALAP (GALAP (Galium); rate 0.0625 kg/ha): 1.0
- Preemergence herbicidal rating GALAP (GALAP (Galium); rate 0.2500 kg/ha): 7.0
- Postemergence herbicidal rating AMBEL (AMBEL (Ragweed, Common) [6]; Rate 0.0158 kg/ha): 9.0
- Postemergence herbicidal rating AMBEL (AMBEL (Ragweed, Common) [6]; Rate 0.0315 kg/ha): 9.0
- Postemergence herbicidal rating AMBEL (AMBEL (Ragweed, Common) [6]; Rate 0.0630 kg/ha): 9.0
- Preemergence herbicidal rating AMBEL (AMBEL (Ragweed, Common) [7]; rate 0.0156 kg/ha): 2.0
- Preemergence herbicidal rating AMBEL (AMBEL (Ragweed, Common) [7]; rate 0.0313 kg/ha): 6.0
- Preemergence herbicidal rating AMBEL (AMBEL (Ragweed, Common) [7]; rate 0.0625 kg/ha): 7.0
- Preemergence herbicidal rating AMBEL (AMBEL (Ragweed, Common) [7]; rate 0.1250 kg/ha): 9.0
- Preemergence herbicidal rating AMBEL (AMBEL (Ragweed, Common) [7]; rate 0.2500 kg/ha): 9.0
- Postemergence herbicidal rating ECHCG (ECHCG (Barnyardgrass); Rate 0.0158 kg/ha): 3.0
- Postemergence herbicidal rating ECHCG (ECHCG (Barnyardgrass); Rate 0.0315 kg/ha): 5.0
- Postemergence herbicidal rating ECHCG (ECHCG (Barnyardgrass); Rate 0.0630 kg/ha): 7.0
- Postemergence herbicidal rating ORYSAT (ORYSAT (Rice, Tebonnet); Rate 0.0158 kg/ha): 6.0
- Postemergence herbicidal rating ORYSAT (ORYSAT (Rice, Tebonnet); Rate 0.0315 kg/ha): 6.0
- Postemergence herbicidal rating ORYSAT (ORYSAT (Rice, Tebonnet); Rate 0.0630 kg/ha): 6.0
